Literature values, collected in patent US7785824B2, “Hydrolysed casein product comprising tripeptides IPP and/or VPP” (Conopco Inc., priority 2003, dated 2010).

Experiments:
[1] = target: Angiotensin I Converting Enzyme (ACE) (Homo sapiens, UniProt P12821); settings: concentration which results in 50% inhibition of the ACE activity
hypertensive humans = settings: in sour milk, placebo-controlled study

Sequence of Angiotensin I Converting Enzyme (ACE) (P12821 30-1306, species assumed): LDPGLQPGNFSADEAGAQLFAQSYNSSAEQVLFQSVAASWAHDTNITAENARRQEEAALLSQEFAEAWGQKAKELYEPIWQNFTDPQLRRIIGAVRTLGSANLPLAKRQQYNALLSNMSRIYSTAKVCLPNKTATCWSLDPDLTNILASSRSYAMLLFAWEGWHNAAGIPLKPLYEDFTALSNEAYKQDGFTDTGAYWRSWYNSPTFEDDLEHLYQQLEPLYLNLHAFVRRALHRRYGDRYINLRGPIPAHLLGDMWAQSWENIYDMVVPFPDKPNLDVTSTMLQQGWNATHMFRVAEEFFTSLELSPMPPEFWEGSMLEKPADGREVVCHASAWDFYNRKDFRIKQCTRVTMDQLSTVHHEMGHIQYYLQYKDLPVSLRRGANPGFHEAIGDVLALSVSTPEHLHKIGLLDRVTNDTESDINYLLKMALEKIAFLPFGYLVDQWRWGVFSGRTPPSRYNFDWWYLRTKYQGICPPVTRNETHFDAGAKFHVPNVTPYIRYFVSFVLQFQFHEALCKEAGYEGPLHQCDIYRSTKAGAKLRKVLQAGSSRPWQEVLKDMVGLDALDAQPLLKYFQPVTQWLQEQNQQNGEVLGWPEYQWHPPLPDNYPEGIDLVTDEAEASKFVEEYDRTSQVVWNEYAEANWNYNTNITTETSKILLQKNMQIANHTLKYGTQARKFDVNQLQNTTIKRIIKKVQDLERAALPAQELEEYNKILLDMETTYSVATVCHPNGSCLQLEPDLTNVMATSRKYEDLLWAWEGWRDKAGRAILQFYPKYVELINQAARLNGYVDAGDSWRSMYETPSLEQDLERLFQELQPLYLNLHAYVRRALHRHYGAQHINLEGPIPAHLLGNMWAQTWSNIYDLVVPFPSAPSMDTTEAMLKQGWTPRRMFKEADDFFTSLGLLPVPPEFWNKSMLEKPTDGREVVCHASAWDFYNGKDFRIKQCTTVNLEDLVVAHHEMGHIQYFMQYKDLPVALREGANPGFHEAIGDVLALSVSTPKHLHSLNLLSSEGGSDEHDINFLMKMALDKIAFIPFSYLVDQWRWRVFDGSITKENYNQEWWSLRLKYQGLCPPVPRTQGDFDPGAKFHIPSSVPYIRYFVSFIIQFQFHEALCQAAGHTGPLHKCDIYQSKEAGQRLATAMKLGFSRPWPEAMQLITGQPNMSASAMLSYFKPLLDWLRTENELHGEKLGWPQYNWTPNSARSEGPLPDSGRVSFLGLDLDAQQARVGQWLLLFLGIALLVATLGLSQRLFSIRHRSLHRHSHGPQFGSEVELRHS

IC50 [1] [µM]	Substance	blood pressure lowering effect (hypertensive humans)
5	Ile-Pro-Pro [IPP]	blood pressure lowering effect
9.6	Leu-Pro-Pro [LPP]	

Substance	IC50 [1] [µM]	blood pressure lowering effect (hypertensive humans)
Val-Pro-Pro [VPP]	9	blood pressure lowering effect
